Source: ChEMBL document CHEMBL4308836, “Inhibitors of Mutant Isocitrate Dehydrogenases 1 and 2 (mIDH1/2): An Update and Perspective” (J Med Chem, 2018)
One block for each molecule: values may come before it.

How the values were obtained:
[1] = biological target: T1, Isocitrate dehydrogenase [NADP] cytoplasmic (Homo sapiens, UniProt O75874, R132C); assay: Inhibition of IDH1 R132C mutant (unknown origin) by kinase-Glo luminescent assay
[2] = biological target: T2, Isocitrate dehydrogenase [NADP] cytoplasmic (Homo sapiens, UniProt O75874, R132H); assay: Inhibition of IDH1 R132H mutant (unknown origin) using alpha-KG as substrate after 90 mins
T2 sequence (O75874 2-414 R132H limits assumed): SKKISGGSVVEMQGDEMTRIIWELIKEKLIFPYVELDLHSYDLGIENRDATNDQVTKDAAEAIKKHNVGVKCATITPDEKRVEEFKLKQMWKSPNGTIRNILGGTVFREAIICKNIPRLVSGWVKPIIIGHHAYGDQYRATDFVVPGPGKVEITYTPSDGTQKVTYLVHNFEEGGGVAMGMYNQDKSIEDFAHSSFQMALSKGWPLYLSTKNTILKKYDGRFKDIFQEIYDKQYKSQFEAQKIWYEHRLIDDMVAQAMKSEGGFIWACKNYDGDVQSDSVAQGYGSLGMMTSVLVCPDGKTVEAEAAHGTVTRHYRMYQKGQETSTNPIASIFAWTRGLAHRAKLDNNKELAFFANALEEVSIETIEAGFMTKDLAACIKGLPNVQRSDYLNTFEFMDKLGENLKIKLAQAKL

[3] = biological target: T3, Isocitrate dehydrogenase [NADP], mitochondrial (Homo sapiens, UniProt P48735, R172K); assay: Inhibition of IDH2 R172K mutant (unknown origin) using alpha-KG as substrate after 90 mins in presence of NADPH by RF/MS analysis
T3 sequence (P48735 40-452 R172K limits assumed): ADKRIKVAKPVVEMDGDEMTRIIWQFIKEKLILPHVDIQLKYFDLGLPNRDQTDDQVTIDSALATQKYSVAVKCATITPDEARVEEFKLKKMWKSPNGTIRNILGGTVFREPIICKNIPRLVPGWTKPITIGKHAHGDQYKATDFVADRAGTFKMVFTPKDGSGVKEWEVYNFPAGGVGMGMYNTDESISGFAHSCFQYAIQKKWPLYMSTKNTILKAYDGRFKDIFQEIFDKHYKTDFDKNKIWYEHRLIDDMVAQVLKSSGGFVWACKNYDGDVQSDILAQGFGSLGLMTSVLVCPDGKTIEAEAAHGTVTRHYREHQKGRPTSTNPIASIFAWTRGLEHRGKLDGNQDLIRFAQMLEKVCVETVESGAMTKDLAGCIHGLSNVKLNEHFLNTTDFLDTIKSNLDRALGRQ

[4] = biological target: T1, Isocitrate dehydrogenase [NADP] cytoplasmic; assay: Inhibition of IDH1 R132C mutant (unknown origin) using alpha-KG as substrate after 60 mins by resazurin based assay
[5] = biological target: T1, Isocitrate dehydrogenase [NADP] cytoplasmic; assay: Inhibition of N-terminal His-tagged IDH1 R132C mutant (unknown origin) expressed in Escherichia coli using alpha-KG as substrate assessed as decrease in D-2-HG production after 90 mins by quadrupole mass spectrometry
[6] = biological target: T2, Isocitrate dehydrogenase [NADP] cytoplasmic; assay: Inhibition of N-terminal His-tagged IDH1 R132H mutant (unknown origin) expressed in Escherichia coli using alpha-KG as substrate assessed as decrease in D-2-HG production after 90 mins by quadrupole mass spectrometry
[7] = biological target: T1, Isocitrate dehydrogenase [NADP] cytoplasmic; assay: Inhibition of IDH1 R132C mutant (unknown origin) assessed as reduction in NADPH consumption using alpha-KG as substrate incubated for 45 mins by diaphorase and resazurin dye based assay
[8] = biological target: T2, Isocitrate dehydrogenase [NADP] cytoplasmic; assay: Inhibition of IDH1 R132H mutant (unknown origin) assessed as reduction in NADPH consumption using alpha-KG as substrate incubated for 45 mins by diaphorase and resazurin dye based assay
[9] = biological target: T2, Isocitrate dehydrogenase [NADP] cytoplasmic; assay: Inhibition of IDH1 R132H mutant (unknown origin) catalytic activity using alpha-KG as substrate assessed as decrease in D-2-HG production after 45 mins by LC-MS/MS analysis
[10] = biological target: T1, Isocitrate dehydrogenase [NADP] cytoplasmic; assay: Inhibition of IDH1 R132C mutant (unknown origin) catalytic activity using alpha-KG as substrate assessed as decrease in D-2-HG production after 45 mins by LC-MS/MS analysis
[11] = biological target: T1, Isocitrate dehydrogenase [NADP] cytoplasmic; assay: Inhibition of IDH1 R132C mutant (unknown origin) using alpha-KG after 105 mins by NADPH depletion assay
[12] = biological target: T2, Isocitrate dehydrogenase [NADP] cytoplasmic; assay: Inhibition of IDH1 R132H mutant (unknown origin) using alpha-KG after 105 mins by NADPH depletion assay
[13] = biological target: T3, Isocitrate dehydrogenase [NADP], mitochondrial; assay: Inhibition of IDH2 R172K mutant (40 to end residues) (unknown origin) using alpha-KG as substrate after 120 mins in presence of NADPH by resazurin-based assay
[14] = biological target: T1, Isocitrate dehydrogenase [NADP] cytoplasmic; assay: Inhibition of IDH1 R132C mutant (unknown origin) assessed as reduction in NADPH consumption by diaphorase/resazurin-based assay
[15] = biological target: T2, Isocitrate dehydrogenase [NADP] cytoplasmic; assay: Inhibition of IDH1 R132H mutant (unknown origin) assessed as reduction in NADPH consumption by diaphorase/resazurin-based assay
[16] = biological target: T4, Isocitrate dehydrogenase [NADP], mitochondrial (Homo sapiens, UniProt P48735, R140Q); assay: Inhibition of IDH2 R140Q mutant (unknown origin) using alpha-KG as substrate after 60 mins in presence of NADPH by resazurin-based assay
T4 sequence (P48735 40-452 R140Q limits assumed): as the sequence (P48735 40-452 R172K limits assumed) above, with R101Q, K133R counted along it

[17] = biological target: T2, Isocitrate dehydrogenase [NADP] cytoplasmic; assay: Inhibition of IDH1 R132H mutant (unknown origin) assessed as reduction in NADPH consumption using alpha-KG as substrate by luminescence based assay
[18] = biological target: T3, Isocitrate dehydrogenase [NADP], mitochondrial; assay: Inhibition of IDH2 R172K mutant (unknown origin) using alpha-KG as substrate after 60 mins in presence of NADPH by resazurin-based assay
[19] = biological target: T4, Isocitrate dehydrogenase [NADP], mitochondrial; assay: Inhibition of IDH2 R140Q mutant in human U87MG cells assessed as reduction in 2-HG levels after 48 hrs […]; format: cell-based

T1 sequence (O75874 2-414 R132C limits assumed): as the sequence (O75874 2-414 R132H limits assumed) above, with H131C counted along it

IC50 [2]: 2 nM | IC50 [3]: 6 nM
SMILES: Cc1cc([C@@H](C)Nc2nc(N3C(=O)OC[C@@H]3C(C)C)c3cc[nH]c3n2)ncc1-c1ccnc(C(F)(F)F)c1

IC50 [4]: < 100 nM
SMILES: CC(C)[C@H]1CNC(=O)N1c1ccnc(NC2(c3cn(-c4ccc(Cl)cc4)cn3)CC2)n1

IC50 [5]: < 100 nM | IC50 [6]: < 100 nM
SMILES: C=CC(=O)N1CC(OCc2ccc([C@H](C)Nc3ncc4c(n3)N(CC(C)C)C(=O)OC4)cc2)C1

IC50 [4]: < 100 nM
SMILES: CC(C)[C@H]1COC(=O)N1c1ccnc(NC2(c3cn(-c4ccc(Cl)cc4)cn3)CC2)n1

IC50 [9]: < 100 nM | IC50 [10]: < 100 nM
SMILES: C[C@H](Nc1ncc(F)c(N2C(=O)[C@@H]3CC[C@H]2C3)n1)c1nc(-c2ccc(Cl)cc2)no1

IC50 [9]: < 100 nM | IC50 [10]: < 100 nM
SMILES: C[C@H](Nc1nccc(N2C(=O)C[C@@H](O)[C@H]2Cc2ccccc2)n1)c1cn(-c2ccc(Cl)cc2)cn1

IC50 [11]: < 300 nM | IC50 [12]: < 300 nM
SMILES: CCc1ccc(Cl)cc1-n1c(C=C(C)C)c(C(=O)N2CCNCC2)cc(-c2nc(-c3ccc(Cl)cc3)cs2)c1=O

IC50 [2]: 28 nM
SMILES: C[C@H](O)[C@@H]1COC(=O)N1c1nc(N[C@H](C)c2cn(-c3ccc(F)cc3)cn2)nc2ccsc12

IC50 [2]: 2 nM | IC50 [3]: 6 nM
SMILES: C[C@H](Nc1nc(N2C(=O)OC[C@@H]2[C@H](C)F)c2cc[nH]c2n1)c1cn(-c2ccc(Cl)cc2)cn1

IC50 [2]: 28 nM
SMILES: C[C@@H](Nc1nc(N2C(=O)OC[C@@H]2c2ccccc2)c2cn[nH]c2n1)c1cn(-c2ccc(Cl)cc2)cn1

IC50 [9]: < 100 nM | IC50 [10]: < 100 nM
SMILES: C[C@H](Nc1nccc(N2C(=O)CCC2(C)C)n1)c1cn(-c2ccc(Cl)cc2)cn1

IC50 [7]: < 10 nM | IC50 [8]: < 10 nM
SMILES: COc1cc(N[C@@H](C)c2cc3cc(Cl)ccc3[nH]c2=O)ccc1C#N

Second part, the molecule before the results:

SMILES: Cn1nccc1-c1cc2c(cc1F)Nc1ncc(F)cc1CN2C(=O)C1CCN(CC(F)(F)F)CC1
IC50 [1]: 3.5 nM

SMILES: COc1cc2[nH]c(=O)c([C@H](C)Nc3ncc(C#N)c(OC)n3)cc2cc1Cl
IC50 [7]: < 10 nM | IC50 [8]: < 10 nM

SMILES: FC(F)(F)c1cc(Nc2nc(NOCC3CC3)nc(-c3cccc(C(F)(F)F)n3)n2)ccn1
IC50 [13]: < 50 nM

SMILES: O=C(C1CCN(CC(F)(F)F)CC1)N1Cc2cc(F)cnc2Nc2cc(F)c(N3CC4(CCCOC4)C3)cc21
IC50 [1]: < 10 nM

SMILES: COCCO[C@H]1CC(C(=O)OC)[C@H](C(=O)N(c2cccc(F)c2)[C@H](C(=O)NC2CC(F)(F)C2)c2ccccc2Cl)C1 (stereo not given in full)
IC50 [14]: < 100 nM | IC50 [15]: < 100 nM

SMILES: [2H]C([2H])([2H])C([2H])(C([2H])([2H])[2H])C([2H])([2H])Nc1nc(Nc2ccnc(C(F)(F)F)c2)nc(-c2cccc(C(F)(F)F)n2)n1
IC50 [16]: 360 nM

SMILES: COc1cc2c(cc1CCC(=O)O)nc(Nc1ccc(OC(F)(F)F)cc1)n2[C@@H]1C[C@H](C)CC(C)(C)C1
IC50 [17]: < 10 nM

SMILES: COc1cc(N[C@@H](C)c2cc3cc(Cl)c(OCc4ccccn4)cc3[nH]c2=O)ccc1C#N
IC50 [7]: < 10 nM | IC50 [8]: < 10 nM

SMILES: CNS(=O)(=O)c1cccc(NC(=O)c2nn(Cc3ccccc3)c(=O)c3ccccc23)c1
IC50 [7]: 50 nM | IC50 [8]: 590 nM

SMILES: c1ccc(Nc2nc(NC3CC3)nc(-c3ccccc3)n2)cc1
IC50 [16]: ≤ 100 nM | IC50 [18]: ≤ 100 nM | IC50 [19]: ≤ 100 nM

SMILES: O=C(NC1CC(F)(F)C1)[C@@H](c1ccccc1Cl)N(C(=O)[C@H](CO)Nc1ncccn1)c1cccc(F)c1
IC50 [14]: < 100 nM | IC50 [15]: < 100 nM

SMILES: COc1cc(N[C@@H](C)c2cc3cc(Cl)c(OCCn4ccnc4C)cc3[nH]c2=O)ccc1C#N
IC50 [7]: < 10 nM | IC50 [8]: < 10 nM
